IC50 and inhibition data for 23 compounds are collected here from ChEMBL document CHEMBL3603767, “Discovery of new acetylcholinesterase inhibitors with small core structures through shape-based virtual screening” (Bioorg Med Chem Lett, 2015).

Calls of active or inactive are those of the source. The calls are words filed in the database; no cut-off is given here.

One test deals with Cholinesterase (Equus caballus, UniProt P81908).
The next test concerns the target Acetylcholinesterase (Electrophorus electricus, UniProt O42275).
Test [1] has as its target Acetylcholinesterase (Electrophorus electricus) (UniProt O42275). Briefly: Inhibition of Electrophorus electricus AChE at 10 uM pre-incubated for 5 mins before acetylthiocholine iodide substrate addition by Ellman's method.
Test [2] has as its target Cholinesterase (Equus caballus) (UniProt P81908). Briefly: Inhibition of equine serum BChE at 10 uM pre-incubated for 5 mins before butyrylthiocholineiodide substrate addition by Ellman's method.
For test [3], the target named is Acetylcholinesterase (Electrophorus electricus) (UniProt O42275). The test can be described thus: Mixed type inhibition of Electrophorus electricus AChE assessed as reduction in enzyme Vmax at 5 to 80 nM pre-incubated for 5 mins before acetylthiocholine iodide substrate addition by Lineweaver-Burk plot.
Test [4] shares this target. The test can be described thus: Mixed type inhibition of Electrophorus electricus AChE assessed as increase in enzyme Km at 5 to 80 nM pre-incubated for 5 mins before acetylthiocholine iodide substrate addition by Lineweaver-Burk plot.

Sequence of Acetylcholinesterase (O42275 whole entry): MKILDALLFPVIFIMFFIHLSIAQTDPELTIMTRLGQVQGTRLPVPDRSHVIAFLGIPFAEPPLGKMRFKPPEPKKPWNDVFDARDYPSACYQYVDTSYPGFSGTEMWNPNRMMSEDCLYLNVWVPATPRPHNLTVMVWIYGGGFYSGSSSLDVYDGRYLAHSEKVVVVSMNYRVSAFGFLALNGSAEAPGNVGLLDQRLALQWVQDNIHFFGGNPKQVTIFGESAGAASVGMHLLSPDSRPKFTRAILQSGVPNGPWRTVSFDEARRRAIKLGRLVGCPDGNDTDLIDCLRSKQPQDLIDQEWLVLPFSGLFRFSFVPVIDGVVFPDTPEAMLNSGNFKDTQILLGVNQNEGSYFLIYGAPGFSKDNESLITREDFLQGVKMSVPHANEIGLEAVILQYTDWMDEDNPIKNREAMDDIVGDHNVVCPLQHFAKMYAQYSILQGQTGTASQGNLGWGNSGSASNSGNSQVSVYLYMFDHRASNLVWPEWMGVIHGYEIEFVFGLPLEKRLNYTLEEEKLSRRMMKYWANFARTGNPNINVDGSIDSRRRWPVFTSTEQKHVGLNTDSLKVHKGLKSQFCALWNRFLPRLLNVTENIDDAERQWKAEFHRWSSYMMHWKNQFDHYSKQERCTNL
Sequence of Cholinesterase (Equus caballus) (P81908 whole entry): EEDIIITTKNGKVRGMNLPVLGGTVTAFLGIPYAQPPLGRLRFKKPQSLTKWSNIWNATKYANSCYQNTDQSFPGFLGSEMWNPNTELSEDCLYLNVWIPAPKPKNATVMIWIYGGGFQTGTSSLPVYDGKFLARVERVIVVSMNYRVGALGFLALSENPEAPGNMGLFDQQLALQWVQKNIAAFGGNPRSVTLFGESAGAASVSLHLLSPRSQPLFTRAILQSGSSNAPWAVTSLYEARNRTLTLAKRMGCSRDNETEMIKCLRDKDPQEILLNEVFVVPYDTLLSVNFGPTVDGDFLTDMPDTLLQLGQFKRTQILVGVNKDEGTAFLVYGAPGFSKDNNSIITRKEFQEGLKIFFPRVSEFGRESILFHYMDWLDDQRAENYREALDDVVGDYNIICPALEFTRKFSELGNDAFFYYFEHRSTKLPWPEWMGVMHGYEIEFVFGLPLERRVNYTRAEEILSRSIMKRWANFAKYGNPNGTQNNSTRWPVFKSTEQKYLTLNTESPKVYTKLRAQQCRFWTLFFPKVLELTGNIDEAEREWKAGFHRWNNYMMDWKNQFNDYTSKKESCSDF
Sequence of Cholinesterase (P81908 whole entry): as above
Sequence of Acetylcholinesterase (Electrophorus electricus) (O42275 24-633 limits assumed): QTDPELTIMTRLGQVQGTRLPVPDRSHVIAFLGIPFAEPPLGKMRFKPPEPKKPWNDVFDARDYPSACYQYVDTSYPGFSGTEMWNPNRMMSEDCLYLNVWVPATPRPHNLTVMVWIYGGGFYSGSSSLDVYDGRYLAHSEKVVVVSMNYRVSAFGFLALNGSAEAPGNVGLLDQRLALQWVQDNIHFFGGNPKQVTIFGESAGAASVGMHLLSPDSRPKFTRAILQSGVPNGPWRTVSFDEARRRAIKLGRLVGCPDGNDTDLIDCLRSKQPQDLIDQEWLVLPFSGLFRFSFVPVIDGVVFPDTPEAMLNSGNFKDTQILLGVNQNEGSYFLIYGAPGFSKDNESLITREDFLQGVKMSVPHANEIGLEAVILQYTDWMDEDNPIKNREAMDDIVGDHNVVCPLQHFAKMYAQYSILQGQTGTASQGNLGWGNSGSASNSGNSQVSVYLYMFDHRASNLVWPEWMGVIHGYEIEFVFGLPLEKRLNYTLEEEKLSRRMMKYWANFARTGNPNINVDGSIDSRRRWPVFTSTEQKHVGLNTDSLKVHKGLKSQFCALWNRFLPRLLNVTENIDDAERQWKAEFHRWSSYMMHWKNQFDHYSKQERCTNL

One may read the IC50 as the concentration needed to halve the response being measured. Lower therefore signals inhibition by little substance. By inhibition is commonly meant the share of the control response that was lost under treatment. On to `Nc1c2c(nc3c4c(nn13)CCC4)CCC2`, for which the results for the IC50 against Cholinesterase and against Acetylcholinesterase were 60900 nM and 7410 nM, respectively. The inhibition worked out at 76.7% in test [1] and 59.2% in test [2].
In the case of `O=c1c(Br)c[nH]c2cccnc12`, the inhibition amounted to 28.3% in test [1] and 24.2% in test [2].
On the same counts, the results for `Nc1nc(O)c2c(n1)CCC2` are 45.6% and 45.8%.
On the same counts, the results for `CN1CCNc2nc3ccccc3nc21` are 26.1% and 42.1%.
On to `Nc1c2c(nc3c1C1CCCCC1S3)CCCC2` (stereo not given), for which the results for the IC50 against Cholinesterase and on Acetylcholinesterase were 330 nM and 30 nM, respectively. Also, the inhibition came out at 95.6% in test [1] and 98.8% in test [2]. Also, the inhibition result in test [3] and in test [4] was “Active” each time.
For `N#CCSc1nc(N)c2c3c(sc2n1)CCCC3`, the inhibition in test [1] turned out to be 34.2%; in test [2] it was 65.4%.
The corresponding values for `Nc1nc(N)c2c(n1)CCC2` are 50.8% and 46.7%.
On the same counts, the results for `Nc1c(N)c2ccccc2oc1=O` are 8.33% and 27.9%.
Turning to `Nc1c2c(nc3sccc13)CCCC2`, the values for the IC50 at Cholinesterase and against Acetylcholinesterase were 110 nM and 260 nM, respectively. The inhibition in test [1] came to 99.8%; in test [2] it was 98.2%.
With `CC(=O)c1oc2ccccc2c1N`, the inhibition was 13.3% in test [1] and 49.2% in test [2].
On the same counts, the results for `Nc1ccc2nc3n(c(=O)c2c1)CCC3` are 59.2% and 31.7%.
Turning to `CC(=O)c1c(C)nc2ccccc2c1N`, the IC50 against Cholinesterase is 460 nM; against Acetylcholinesterase it was 320 nM. For the same compound, the inhibition in test [1] came out at 96.9%; in test [2], 99.7%. Further, the inhibition entry in test [3] and in test [4] was “Active” throughout.
With `O=C1c2ccccc2NC2=NCCCN12`, the inhibition turned out to be 26.7% in test [1] and 42.5% in test [2].
For the compound `Nc1c2c(nc3c1CCC3)CCCC2` [IPIDACRINE], the IC50 against Cholinesterase is 70 nM; at Acetylcholinesterase it was 170 nM. For the same compound, the inhibition turned out to be 98.7% in test [1] and 99% in test [2].
On the same counts, the results for `Nc1c2c(nc3ccccc13)N(Cc1ccccc1)CC2` are 2250 nM, 740 nM, 96.4% and 99.8%.
In the case of `CCCCN1CCc2c1nc1ccc(Br)cc1c2N`, the IC50 against Cholinesterase came out at 8920 nM; against Acetylcholinesterase, 300 nM. The inhibition came out at 90.6% in test [1] and 92.5% in test [2].
In the case of `O=c1c2ccccc2nc2n1CCCS2`, the inhibition in test [1] was 59.2%; in test [2], 45%.
The corresponding values for `Oc1nc(S)nc2c1CCCN2` are 68.3% and 30.4%.
On the same counts, the results for `Oc1ccnc2ccccc12` are 32.5% and 28.8%.
Take `COc1ccc2nc(C(F)(F)F)c(C#N)c(N)c2c1`: the IC50 at Cholinesterase was 30700 nM; against Acetylcholinesterase, 690 nM. Besides, the inhibition in test [1] was determined as 85%; in test [2], 35.4%.
In the case of `Nc1nc(N)c2c(Br)cccc2n1`, the inhibition in test [1] was 76.9%; in test [2] it was 82.5%.
As for `Cc1cccc2c(N)c3c(nc12)N(C)CC3`, the figures for the IC50 against Cholinesterase and on Acetylcholinesterase were 15900 nM and 1150 nM, respectively. For the same compound, the inhibition in test [1] amounted to 89.7%; in test [2], 90.8%.
On the same counts, the results for `CC1(C)CC(=O)c2c(nc3ccccc3c2N)C1` are 36200 nM, 7190 nM, 92.8% and 85%.
